Measurements: PubChem BioAssay AID248 (DTP/NCI, 2004)
Several values for one entry are separate records, joined by “and”; a condition that tells them apart may be missing. Equal values may be shown once. Inconclusive results and toxic doses are left out. Rule as the data show it: active = T/C of 150% or more; inactive = T/C below 125%.

Tested on: L1210 leukemia ip in BDF1 mice, survival T/C
Assay: NCI In Vivo Anticancer Drug Screen. Data for tumor model L1210 Leukemia (intraperitoneal) in B6D2F1 (BDF1) mice
Details: endpoint: mean survival time, higher = longer survival
Method in brief: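 Survival endpoint. Drug-treated group vs vehicle group, expressed as T divided by C. Tumor passaged by transplantation.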

[1] = dose: 100.0 mg/kg/injection, schedule: Q01DX001 (ip), vehicle: carboxymethylcellulose (CMC)
[2] = dose: 200.0 mg/kg/injection, schedule: Q01DX001 (ip), vehicle: carboxymethylcellulose (CMC)
[3] = dose: 400.0 mg/kg/injection, schedule: Q01DX001 (ip), vehicle: carboxymethylcellulose (CMC)
[4] = dose: 100.0 mg/kg/injection, schedule: Q01DX009 (ip), vehicle: water
[5] = dose: 200.0 mg/kg/injection, schedule: Q01DX009 (ip), vehicle: water
[6] = dose: 100.0 mg/kg/injection, schedule: Q01DX009 (ip), vehicle: Klucel (hydroxypropylcellulose) (HPC)
[7] = dose: 200.0 mg/kg/injection, schedule: Q01DX009 (ip), vehicle: Klucel (hydroxypropylcellulose) (HPC)
[8] = dose: 100.0 mg/kg/injection, schedule: Q04DX003 (ip), vehicle: saline
[9] = dose: 200.0 mg/kg/injection, schedule: Q04DX003 (ip), vehicle: saline
[10] = dose: 400.0 mg/kg/injection, schedule: Q04DX003 (ip), vehicle: saline
[11] = dose: 100.0 mg/kg/injection, schedule: Q01DX009 (ip), vehicle: saline with Tween-80
[12] = dose: 100.0 mg/kg/injection, schedule: Q04DX003 (ip), vehicle: saline with Tween-80
[13] = dose: 200.0 mg/kg/injection, schedule: Q04DX003 (ip), vehicle: saline with Tween-80

Measured: T/C

COc1cc(C(=O)COC(C)=O)cc(OC)c1OC(C)=O
inactive: dose: 100.0 mg/kg/injection, schedule: Q01DX001 (ip), vehicle: saline 88 % of control | dose: 200.0 mg/kg/injection, schedule: Q01DX001 (ip), vehicle: saline 89 % of control | dose: 400.0 mg/kg/injection, schedule: Q01DX001 (ip), vehicle: saline 89 % of control

CCCCOC(=O)/C(=C\c1cccc(OC)c1)NC(=O)c1ccccc1
inactive: dose: 50.0 mg/kg/injection, schedule: Q01DX009 (ip), vehicle: other 92 % of control | dose: 100.0 mg/kg/injection, schedule: Q01DX009 (ip), vehicle: other 89 % of control | dose: 200.0 mg/kg/injection, schedule: Q01DX009 (ip), vehicle: other 100 % of control and 91 % of control | dose: 400.0 mg/kg/injection, schedule: Q01DX009 (ip), vehicle: other 88 % of control

CN(C)CC(=O)Nc1ccc(NC(=O)c2ccc(C(=O)Nc3ccc(NC(=O)CN(C)C)cc3)cc2)cc1
inactive: dose: 15.0 mg/kg/injection, schedule: Q01DX Z (ip), vehicle: methylcellulose (MC) 104 % of control | dose: 30.0 mg/kg/injection, schedule: Q01DX Z (ip), vehicle: methylcellulose (MC) 106 % of control | dose: 60.0 mg/kg/injection, schedule: Q01DX Z (ip), vehicle: methylcellulose (MC) 93 % of control | dose: 120.0 mg/kg/injection, schedule: Q01DX Z (ip), vehicle: methylcellulose (MC) 95 % of control

Clc1ccc(/C=N/Nc2nnc(N/N=C/c3ccc(Cl)cc3Cl)c3ccccc23)c(Cl)c1
inactive: dose: 50.0 mg/kg/injection, schedule: Q01DX001 (ip), vehicle: carboxymethylcellulose (CMC) 88 % of control | [1] 89 % of control | [2] 93 % of control | [3] 100 % of control

[Cl][Bi]([Cl])([c]1ccccc1)([c]1ccccc1)[c]1ccccc1
inactive: dose: 100.0 mg/kg/injection, schedule: Q04DX002 (ip), vehicle: Klucel (hydroxypropylcellulose) (HPC) 98 % of control | dose: 200.0 mg/kg/injection, schedule: Q04DX002 (ip), vehicle: Klucel (hydroxypropylcellulose) (HPC) 92 % of control | dose: 400.0 mg/kg/injection, schedule: Q04DX002 (ip), vehicle: Klucel (hydroxypropylcellulose) (HPC) 98 % of control

COC(=N)c1cccc(O)c1
inactive: dose: 100.0 mg/kg/injection, schedule: Q01DX009 (ip), vehicle: saline 99 % of control | dose: 200.0 mg/kg/injection, schedule: Q01DX009 (ip), vehicle: saline 97 % of control | dose: 400.0 mg/kg/injection, schedule: Q01DX009 (ip), vehicle: saline 99 % of control

O=C1C(=O)c2ccccc2C(O)=C1CC=C1CCCC1
inactive: dose: 100.0 mg/kg/injection, schedule: Q01DX001 (ip), vehicle: water 109 % of control | [4] 105 % of control | [5] 103 % of control

COc1ccc(OC)c(NC(=O)Oc2ccc(SC)cc2)c1
inactive: dose: 100.0 mg/kg/injection, schedule: Q04DX003 (ip), vehicle: Klucel (hydroxypropylcellulose) (HPC) 86 % of control | dose: 200.0 mg/kg/injection, schedule: Q04DX003 (ip), vehicle: Klucel (hydroxypropylcellulose) (HPC) 88 % of control | dose: 400.0 mg/kg/injection, schedule: Q04DX003 (ip), vehicle: Klucel (hydroxypropylcellulose) (HPC) 86 % of control

CCCCOC(=O)/C=C\C(=O)NC(N)=O
inactive: dose: 31.0 mg/kg/injection, schedule: Q01DX Z (ip), vehicle: methylcellulose (MC) 98 % of control | dose: 51.0 mg/kg/injection, schedule: Q01DX Z (ip), vehicle: methylcellulose (MC) 101 % of control

O=C(Nc1ccccc1F)OCCOc1ccc(-c2ccccc2)cc1
inactive: [6] 96 % of control | [7] 95 % of control | dose: 400.0 mg/kg/injection, schedule: Q01DX009 (ip), vehicle: Klucel (hydroxypropylcellulose) (HPC) 98 % of control

O=C(O)CCC(=O)NCCNC(c1ccccc1)(c1ccccc1)c1ccccc1
inactive: dose: 12.0 mg/kg/injection, schedule: Q01DX009 (ip), vehicle: saline 96 % of control | dose: 25.0 mg/kg/injection, schedule: Q01DX009 (ip), vehicle: saline 96 % of control | dose: 50.0 mg/kg/injection, schedule: Q01DX009 (ip), vehicle: saline 100 % of control | [8] 111 % of control | [9] 94 % of control | [10] 105 % of control

CC1(C)CC=CC(COC(=O)c2ccccc2C(=O)O)C1 (stereo unspecified)
inactive: [1] 102 % of control | [2] 107 % of control | [3] 96 % of control

CC(C)N(C)N=Nc1n[nH]nc1C(N)=O
inactive: dose: 200.0 mg/kg/injection, schedule: Q01DX Z (ip), vehicle: carboxymethylcellulose (CMC) 104 % of control

COc1cc(NC(C)=O)c2ncccc2c1
inactive: [11] 99 % of control | dose: 200.0 mg/kg/injection, schedule: Q01DX009 (ip), vehicle: saline with Tween-80 106 % of control

COc1cc(C(C)=O)cc(OC)c1OC
inactive: [12] 102 % of control | [13] 96 % of control | dose: 400.0 mg/kg/injection, schedule: Q04DX003 (ip), vehicle: saline with Tween-80 98 % of control

Cc1ccc(NC(=O)OC/C=C/c2ccccc2)c(Cl)c1
inactive: [6] 99 % of control | [7] 97 % of control

Cc1cc(C)c(C(=O)/C=C(\N)C(=O)c2c(C)cc(C)cc2C)c(C)c1
inactive: dose: 50.0 mg/kg/injection, schedule: Q04DX003 (ip), vehicle: carboxymethylcellulose (CMC) 110 % of control | dose: 100.0 mg/kg/injection, schedule: Q04DX003 (ip), vehicle: carboxymethylcellulose (CMC) 98 % of control | dose: 200.0 mg/kg/injection, schedule: Q04DX003 (ip), vehicle: carboxymethylcellulose (CMC) 104 % of control

CN1CCCCCC1
inactive: dose: 50.0 mg/kg/injection, schedule: Q01DX009 (ip), vehicle: acetone 86 % of control | dose: 100.0 mg/kg/injection, schedule: Q01DX009 (ip), vehicle: acetone 110 % of control

CCCN(CC#N)CCC
inactive: dose: 3.0 mg/kg/injection, schedule: Q01DX009 (ip), vehicle: Klucel (hydroxypropylcellulose) (HPC) 97 % of control | dose: 6.0 mg/kg/injection, schedule: Q01DX009 (ip), vehicle: Klucel (hydroxypropylcellulose) (HPC) 97 % of control | dose: 6.0 mg/kg/injection, schedule: Q04DX003 (ip), vehicle: Klucel (hydroxypropylcellulose) (HPC) 98 % of control | dose: 12.0 mg/kg/injection, schedule: Q01DX009 (ip), vehicle: Klucel (hydroxypropylcellulose) (HPC) 97 % of control | dose: 12.0 mg/kg/injection, schedule: Q04DX003 (ip), vehicle: Klucel (hydroxypropylcellulose) (HPC) 107 % of control | dose: 25.0 mg/kg/injection, schedule: Q04DX003 (ip), vehicle: Klucel (hydroxypropylcellulose) (HPC) 96 % of control

CCCCCCCCCCCCCCCCN1CNC(=O)NC1
inactive: dose: 100.0 mg/kg/injection, schedule: Q01DX001 (ip), vehicle: other 98 % of control | dose: 200.0 mg/kg/injection, schedule: Q01DX001 (ip), vehicle: other 98 % of control | dose: 400.0 mg/kg/injection, schedule: Q01DX001 (ip), vehicle: other 95 % of control

O=C(O)CCC(=O)Nc1cccc(Oc2ccc([N+](=O)[O-])cc2[N+](=O)[O-])c1
inactive: [8] 106 % of control | [9] 98 % of control | [10] 97 % of control

CCCC[S][Sn-]([CH2]CCC)([CH2]CCC)[CH2]CCC
inactive: dose: 6.25 mg/kg/injection, schedule: Q04DX003 (ip), vehicle: saline with Tween-80 101 % of control | dose: 12.5 mg/kg/injection, schedule: Q04DX003 (ip), vehicle: saline with Tween-80 109 % of control | dose: 25.0 mg/kg/injection, schedule: Q04DX002 (ip), vehicle: saline with Tween-80 93 % of control | dose: 25.0 mg/kg/injection, schedule: Q04DX003 (ip), vehicle: saline with Tween-80 98 % of control

C=Cc1ccc(Oc2ccccc2)cc1
inactive: dose: 50.0 mg/kg/injection, schedule: Q01DX009 (ip), vehicle: saline with Tween-80 98 % of control | [11] 112 % of control

CC(O)(C(N)=O)c1cc(Cl)ccc1Cl (stereo unspecified)
inactive: [4] 94 % of control | dose: 100.0 mg/kg/injection, schedule: Q04DX003 (ip), vehicle: water 90 % of control | [5] 96 % of control | dose: 200.0 mg/kg/injection, schedule: Q04DX003 (ip), vehicle: water 95 % of control | dose: 400.0 mg/kg/injection, schedule: Q01DX009 (ip), vehicle: water 107 % of control | dose: 400.0 mg/kg/injection, schedule: Q04DX003 (ip), vehicle: water 96 % of control

CCC1=CC(=O)C(CC)=CC1=O
inactive: [12] 89 % of control | [13] 94 % of control | dose: 700.0 mg/kg/injection, schedule: Q04DX003 (ip), vehicle: saline with Tween-80 100 % of control
